From US10494332B2, “Protein tyrosine phosphatases or SHP2 inhibitors and uses thereof” (Indiana University Research and Technology Corporation, priority 2015, dated 2019)

Key:
[1] = Pharmacokinetics and bioavailability in guinea pigs; type: in vivo, guinea pig
Method: All drugs were suspended in 1% DMSO, 0.5% DEA, 48.5% PEG 400, and 50% water. Blood was collected for analysis of these drugs in plasma pre-dose and at 1, 4, 8, 24, and 48 h post-dose. Plasma was separated and stored at −70° C. until analysis. Plasma drug concentrations were determined by liquid chromatography-mass spectrometry and liquid chromatography-tandem mass spectrometry over the concentration range of 0.005-1 mg/L with dilution to 10 mg/L. Pharmacokinetic variables were calculated from individual drug concentration-time data using non-compartmental methods as implemented in WinNonlin version 5.0 (Pharsight, Mountain View, Calif.) as described earlier.

[2] = system: M. tuberculosis (Erdman and H37Rv) in J774 macrophages; assay: Macrophage assay: growth of M. tuberculosis in IFN-γ activated J774 macrophages; type: cell-based, Mycobacterium tuberculosis
M. tuberculosis H37Rv = assay: Chronic TB infection in guinea pigs, adjunctive treatment with HRZ; type: in vivo, guinea pig; settings: added to the standard regimen HRZ, after 6 weeks of treatment
[3] = system: mPTPB transfected Raw264.7 cells; assay: IFN-γ induced Erk1/2 phosphorylation in transfected Raw264.7 macrophages; type: cell-based, mouse
Method: Raw264.7 mouse macrophages were cultured in Dulbecco's modified Eagle's medium (DMEM) supplemented with 10% FBS (Invitrogen), penicillin (50 units/mL), and streptomycin (50 μg/mL) under a humidified atmosphere containing 5% CO2 at 37° C. Transfected Raw264.7 cells (Vector, WT-mPTPB) were seeded in a 12-well plate at a density of 4×10^4 cells/well. The following day cells were treated with mPTPB inhibitor 11a for 1 hour, then stimulated with IFN-γ (200 U/ml) for 1 hour. Subsequently, the cells were washed with ice-cold phosphate buffered saline, and lysed with lysis buffer on ice for 30 minutes. Cell lysate was then cleared by centrifuging at 13,000 rpm for 15 minutes. The phosphorylation of ERK1/2 was detected by Western blotting.

[4] = system: insulin signaling pathway in HepG2 cells (LMWPTP); assay: Insulin signaling in HepG2 cells; type: cell-based; settings: HepG2, 1 hour pretreatment, 5 nM insulin for 5 minutes
Method: To assess the effects of L335N15 in insulin signaling pathway, HepG2 cells were pretreated with L335N15 for 1 hour and were subsequently stimulated with 5 nM insulin for 5 minutes. […] Consistent with IR activation, downstream Akt phosphorylation (Ser473) was increased. […] Accordingly, LMWPTP inhibitors such as L335N15 described herein can be used to develop agents for the treatment of type 2 diabetes and insulin resistance.

For Cc1c(Br)cc(NC(=O)CS(=O)(=O)O)cc1Br, which “Time plasma concentration 10-fold in excess of biochemical IC50” value ([1]; guinea pig, in vivo, po) is on record?
The value was 12-14 hours.

And the Tmax ([1]; guinea pig, plasma, po)?
Its Tmax is 2.5 h.

What about the “Oral bioavailability and half-life in guinea pigs” value ([1]; oral) of the same compound?
Its value is “good oral bioavailability and half-life”.

What about the “Anti-Mtb activity in infected macrophages” value ([2]; J774A.1 macrophages, low micromolar concentrations) of the same compound?
Its value is “markedly decrease bacterial load”.

And the IC90 ([2]; Mycobacterium tuberculosis, J774, IC90 in macrophages activated with interferon-γ, read-out: In vitro anti-Mtb activity, Mtb-infected macrophages (IC90))?
Its IC90 is 1.38 µM.

And the “Further reduction of mean lung CFU relative to HRZ” value (M. tuberculosis H37Rv)?
Its value is 0.14 log10.

Which “Erk1/2 phosphorylation in mPTPB transfected Raw264.7 cells” value ([3]; 8 nM, 16 nM, and 32 nM) does the source give for O=C(C(c1ccccc1)S(=O)(=O)O)N1CCCC2CCCCC21 (stereo not shown) [Compound L319N53] here?
The value was “increased Erk1/2 phosphorylation”.

And the “Erk1/2 phosphorylation in vector cells” value ([3]; vector Raw264.7 cells)?
Its value is “no effect”.

With O=C(CS(=O)(=O)O)Nc1nc2ccccc2s1 [Compound L335N15] as the compound, how does the “Akt phosphorylation (Ser473)” value [4] read?
Its value is “increased”.

And the “IR Tyr1162/1163 phosphorylation” value ([4]; relative to DMSO)?
The value was “enhanced IR Tyr1162/1163 phosphorylation in a dose-dependent fashion”.
